Experimental data as given in the NIST ThermoML archive (doi:10.1021/je034261a).

Key:
[1] = for Glass transition temperature / Normal melting temperature: DTA; for mass density: 101.33 kPa, Liquid
[2] = molar heat capacity at constant pressure; conditions: 101.33 kPa, Liquid, Small sample (50 mg) DSC

CCCCn1cc[n+](C)c1.[Cl-] [1-butyl-3-methylimidazolium chloride]
Conditions	Glass transition temperature [°C]
[1]	-69.0

[2]
Conditions	molar heat capacity at constant pressure [J/K/mol]
298.15 K	322.7
323.15 K	333.7

CCCCn1cc[n+](C)c1.O=S(=O)([O-])C(F)(F)F [1-butyl-3-methylimidazolium trifluoromethanesulfonate]
Conditions	Normal melting temperature, Crystal [°C]	mass density, 295.75 K [kg/m3]	mass density, 303.95 K [kg/m3]	mass density, 313.35 K [kg/m3]	mass density, 328.75 K [kg/m3]	mass density, 342.95 K [kg/m3]	molar heat capacity at constant pressure, 298.15 K [J/K/mol]	molar heat capacity at constant pressure, 323.15 K [J/K/mol]
[1]	13.0	1301.3	1296.5	1289.4	1279	1270	–	–
[2]	–	–	–	–	–	–	417.2	423.1

CCn1cc[n+](C)c1.O=S(=O)([N-]S(=O)(=O)C(F)(F)F)C(F)(F)F
Conditions	Normal melting temperature, Metastable crystal [°C]	mass density, 296.15 K [kg/m3]	mass density, 303.95 K [kg/m3]	mass density, 313.85 K [kg/m3]	mass density, 323.45 K [kg/m3]	mass density, 333.65 K [kg/m3]	molar heat capacity at constant pressure, 298.15 K [J/K/mol]	molar heat capacity at constant pressure, 323.15 K [J/K/mol]
[1]	-17.0	1521.3	1515.9	1506.5	1496.7	1485.8	–	–
[2]	–	–	–	–	–	–	524.3	532.2

Conditions	Glass transition temperature [°C]
[1]	-92.0

CCCCn1cc[n+](C)c1C.F[B-](F)(F)F [1-butyl-2,3-dimethylimidazolium tetrafluoroborate]
Conditions	Normal melting temperature, Crystal [°C]	mass density, 300.15 K [kg/m3]	mass density, 313.15 K [kg/m3]	mass density, 323.15 K [kg/m3]	molar heat capacity at constant pressure, 330.15 K [J/K/mol]	molar heat capacity at constant pressure, 372.15 K [J/K/mol]
[1]	37.0	1093.5	1076.2	1063.4	–	–
[2]	–	–	–	–	375.3	406.5

Conditions	Glass transition temperature [°C]
[1]	-68.0

CCC[n+]1ccn(C)c1C.O=S(=O)([N-]S(=O)(=O)C(F)(F)F)C(F)(F)F
Conditions	mass density, 295.15 K [kg/m3]	mass density, 304.25 K [kg/m3]	mass density, 313.65 K [kg/m3]	mass density, 324.35 K [kg/m3]	mass density, 335.15 K [kg/m3]	mass density, 344.65 K [kg/m3]	molar heat capacity at constant pressure, 298.15 K [J/K/mol]	molar heat capacity at constant pressure, 323.15 K [J/K/mol]
[1]	1456.7	1454.2	1446.4	1438.6	1427.5	1415.5	–	–
[2]	–	–	–	–	–	–	554.5	558.7

Conditions	Glass transition temperature [°C]
[1]	-82.0

CCn1cc[n+](C)c1C.O=S(=O)([N-]S(=O)(=O)C(F)(F)F)C(F)(F)F
Conditions	Normal melting temperature, Crystal [°C]	mass density, 296.15 K [kg/m3]	mass density, 303.75 K [kg/m3]	mass density, 313.55 K [kg/m3]	mass density, 323.35 K [kg/m3]	mass density, 333.65 K [kg/m3]	molar heat capacity at constant pressure, 309.15 K [J/K/mol]	molar heat capacity at constant pressure, 323.15 K [J/K/mol]
[1]	25.0	1491.3	1485.5	1476.9	1468	1457.2	–	–
[2]	–	–	–	–	–	–	492.7	498.8

CCCCn1cc[n+](C)c1.F[P-](F)(F)(F)(F)F [1-butyl-3-methylimidazolium hexafluorophosphate]
Conditions	Normal melting temperature, Crystal [°C]	molar heat capacity at constant pressure, 298.15 K [J/K/mol]	molar heat capacity at constant pressure, 323.15 K [J/K/mol]
[1]	11.0	–	–
[2]	–	397.6	405.1

Conditions	Glass transition temperature [°C]
[1]	-76.0

CCCCn1cc[n+](C)c1.[Br-] [1-butyl-3-methylimidazolium bromide]
Conditions	Glass transition temperature [°C]
[1]	-50.0

[2]
Conditions	molar heat capacity at constant pressure [J/K/mol]
298.15 K	316.7
323.15 K	323.6

CCCCn1cc[n+](C)c1.F[B-](F)(F)F [1-butyl-3-methylimidazolium tetrafluoroborate]
Conditions	mass density, 295.45 K [kg/m3]	mass density, 303.85 K [kg/m3]	mass density, 313.55 K [kg/m3]	mass density, 328.25 K [kg/m3]	mass density, 343.85 K [kg/m3]	molar heat capacity at constant pressure, 298.15 K [J/K/mol]	molar heat capacity at constant pressure, 323.15 K [J/K/mol]
[1]	1204.8	1200.5	1194	1185	1173.7	–	–
[2]	–	–	–	–	–	351.5	358

Conditions	Glass transition temperature [°C]
[1]	-85.0

CCCCn1cc[n+](C)c1C.F[P-](F)(F)(F)(F)F [1-butyl-2,3-dimethylimidazolium hexafluorophosphate]
Conditions	mass density, 295.65 K [kg/m3]	mass density, 313.15 K [kg/m3]	mass density, 323.15 K [kg/m3]	molar heat capacity at constant pressure, 298.15 K [J/K/mol]	molar heat capacity at constant pressure, 323.15 K [J/K/mol]
[1]	1241.6	1219	1205.5	–	–
[2]	–	–	–	433.6	449.1

Conditions	Glass transition temperature [°C]
[1]	-58.0

CCCC[n+]1ccn(C)c1.O=S(=O)([N-]S(=O)(=O)C(F)(F)F)C(F)(F)F
Conditions	Normal melting temperature, Crystal [°C]	mass density, 296.45 K [kg/m3]	mass density, 304.15 K [kg/m3]	mass density, 313.45 K [kg/m3]	mass density, 323.35 K [kg/m3]	mass density, 333.75 K [kg/m3]	molar heat capacity at constant pressure, 298.15 K [J/K/mol]	molar heat capacity at constant pressure, 323.15 K [J/K/mol]
[1]	-2.0	1438.6	1433.6	1424.7	1414.2	1405.4	–	–
[2]	–	–	–	–	–	–	536.3	543.9

Conditions	Glass transition temperature [°C]
[1]	-86.0

CCCCn1cc[n+](C)c1.N#CN=C=[N-] [1-butyl-3-methylimidazolium dicyanamide]
Conditions	Normal melting temperature, Crystal [°C]	mass density, 297.15 K [kg/m3]	mass density, 312.95 K [kg/m3]	mass density, 324.35 K [kg/m3]	mass density, 333.95 K [kg/m3]	mass density, 344.15 K [kg/m3]	mass density, 355.85 K [kg/m3]	molar heat capacity at constant pressure, 298.15 K [J/K/mol]	molar heat capacity at constant pressure, 323.15 K [J/K/mol]
[1]	-6.0	1058	1052.5	1046.6	1041.5	1034	1025.8	–	–
[2]	–	–	–	–	–	–	–	364.6	370

Conditions	Glass transition temperature [°C]
[1]	-90.0
